Data published in patent US12692223B2, “Phenyl-sulfamoyl-benzoic acid derivatives as ERAP1-modulators” (GREY WOLF THERAPEUTICS LIMITED, priority 2021, dated 2026).
pIC50: −log10 of the molar value.

Target: T1, ERAP1 (Homo sapiens, UniProt Q9NZ08)
T1 construct: Purified ERAP1(37-941)-10His (ERAP1)
Test: ERAP1 mediated hydrolysis of an amide substrate measured in a biochemical system (10-mer inhibition assay)
Conditions: purified ERAP1(37-941)-10His; 10-mer substrate; 23° C. for 1 h; excitation 279 nm, emission 355 nm; read-out: IC50 vs Decapeptide WRVYEKC(Dnp)ALK-acid (where Dnp is Dinitrophenyl maleimide) (10-mer)
Experimental: Biological Assay 1: ERAP1 Mediated Hydrolysis of an Amide Substrate Measured in a Biochemical System
• 1× Assay buffer (AB): 25 mM Bis-tris propane, 0.05% w/v • Hydroxypropylmethylcellulose pH 7.75 made with Optima grade water • Decapeptide WRVYEKC(Dnp)ALK-acid (where Dnp is Dinitrophenyl maleimide) (10-mer) • L-Leucine 7-amido-4-methylcoumarin (L-AMC) • Purified ERAP1(37-941)-10His (ERAP1) Assay Procedure:
12.5 μL ERAP1 enzyme in 1×AB was combined with 250 nL test compound in DMSO. 12.5 μL of either 240 μM L-AMC in 1×AB or 100 μM 10-mer in 1×AB was added to the reaction and incubated at 23° C. for 1 h. For detection, plates were read at excitation 365 nm and emission 442 nm (L-AMC) or excitation 279 nm and emission 355 nm (10-mer). Compound IC50 was determined using a 4-parameter equation.

T1 sequence (Q9NZ08 37-941): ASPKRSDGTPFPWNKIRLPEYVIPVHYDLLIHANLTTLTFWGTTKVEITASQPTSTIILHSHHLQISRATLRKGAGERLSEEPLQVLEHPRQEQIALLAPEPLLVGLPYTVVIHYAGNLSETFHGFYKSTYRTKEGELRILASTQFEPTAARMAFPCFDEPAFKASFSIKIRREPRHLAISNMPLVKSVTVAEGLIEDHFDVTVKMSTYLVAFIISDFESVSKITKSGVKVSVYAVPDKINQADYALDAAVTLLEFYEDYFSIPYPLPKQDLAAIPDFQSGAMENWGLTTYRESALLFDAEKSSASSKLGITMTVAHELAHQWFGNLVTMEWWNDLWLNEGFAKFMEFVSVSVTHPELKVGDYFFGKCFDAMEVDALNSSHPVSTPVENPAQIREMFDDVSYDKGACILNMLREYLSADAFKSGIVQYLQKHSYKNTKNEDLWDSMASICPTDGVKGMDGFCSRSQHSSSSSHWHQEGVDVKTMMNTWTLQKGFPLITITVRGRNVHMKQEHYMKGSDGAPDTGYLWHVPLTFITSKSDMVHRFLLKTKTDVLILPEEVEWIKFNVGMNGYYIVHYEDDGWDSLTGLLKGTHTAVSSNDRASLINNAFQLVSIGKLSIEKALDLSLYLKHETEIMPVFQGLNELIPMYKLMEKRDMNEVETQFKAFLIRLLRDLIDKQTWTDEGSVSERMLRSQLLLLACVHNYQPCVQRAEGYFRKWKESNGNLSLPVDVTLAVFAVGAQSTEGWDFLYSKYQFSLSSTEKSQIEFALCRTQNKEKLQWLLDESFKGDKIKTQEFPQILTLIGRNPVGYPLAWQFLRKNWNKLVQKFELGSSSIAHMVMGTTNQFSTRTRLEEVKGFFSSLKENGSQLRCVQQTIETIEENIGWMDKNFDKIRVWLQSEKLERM

Structure (SMILES) | pIC50
CC1CC(Oc2cc(Cl)c(C#N)cc2NS(=O)(=O)c2cc(C(=O)O)ccc2C2CC2)C1 (single isomer, unassigned) [Example 114, 3-(N-(4-chloro-5-cyano-2-(3-methylcyclobutoxy)phenyl)sulfamoyl)-4-cyclopropylbenzoic acid] | > 9.00
CC1CC(Oc2cc(Cl)c(C#N)cc2NS(=O)(=O)c2cc(C(=O)O)ccc2C2CC2)C1 (single isomer, unassigned) [Example 115, 3-(N-(4-chloro-5-cyano-2-(3-methylcyclobutoxy)phenyl)sulfamoyl)-4-cyclopropylbenzoic acid] | > 9.00
C#CC1CCCC1Oc1cc(Cl)c(C#N)cc1NS(=O)(=O)c1cc(C(=O)O)ccc1C1CC1 (single isomer, unassigned) [Example 116, 3-(N-(4-chloro-5-cyano-2-((trans-2-ethynylcyclopentyl)oxy)phenyl)sulfamoyl)-4-cyclopropylbenzoic acid] | < 8.30
C#CC1CCCC1Oc1cc(Cl)c(C#N)cc1NS(=O)(=O)c1cc(C(=O)O)ccc1C1CC1 (single isomer, unassigned) [Example 117, 3-(N-(4-chloro-5-cyano-2-((trans-2-ethynylcyclopentyl)oxy)phenyl)sulfamoyl)-4-cyclopropylbenzoic acid] | > 9.00
CC1CCC1Oc1cc(Cl)c(C#N)cc1NS(=O)(=O)c1cc(C(=O)O)ccc1C1CC1 (single isomer, unassigned) [Example 120, 3-(N-(4-chloro-5-cyano-2-(2-methylcyclobutoxy)phenyl)sulfamoyl)-4-cyclopropylbenzoic acid] | > 9.00
CC1CCC1Oc1cc(Cl)c(C#N)cc1NS(=O)(=O)c1cc(C(=O)O)ccc1C1CC1 (single isomer, unassigned) [Example 121, 3-(N-(4-chloro-5-cyano-2-(2-methylcyclobutoxy)phenyl)sulfamoyl)-4-cyclopropylbenzoic acid] | > 9.00
CC1CCC1Oc1cc(Cl)c(C#N)cc1NS(=O)(=O)c1cc(C(=O)O)ccc1C1CC1 (single isomer, unassigned) [Example 122, 3-(N-(4-chloro-5-cyano-2-(2-methylcyclobutoxy)phenyl)sulfamoyl)-4-cyclopropylbenzoic acid] | 8.30 to 9.00
CC1CCC1Oc1cc(Cl)c(C#N)cc1NS(=O)(=O)c1cc(C(=O)O)ccc1C1CC1 (single isomer, unassigned) [Example 123, 3-(N-(4-chloro-5-cyano-2-(2-methylcyclobutoxy)phenyl)sulfamoyl)-4-cyclopropylbenzoic acid] | > 9.00
C#CC1CCCC1Oc1cc(Cl)c(C#N)cc1NS(=O)(=O)c1cc(C(=O)O)ccc1C1CC1 (single isomer, unassigned) [Example 126, 3-(N-(4-chloro-5-cyano-2-((cis-2-ethynylcyclopentyl)oxy)phenyl)sulfamoyl)-4-cyclopropylbenzoic acid] | > 9.00
C#CC1CCCC1Oc1cc(Cl)c(C#N)cc1NS(=O)(=O)c1cc(C(=O)O)ccc1C1CC1 (single isomer, unassigned) [Example 127, 3-(N-(4-chloro-5-cyano-2-((cis-2-ethynylcyclopentyl)oxy)phenyl)sulfamoyl)-4-cyclopropylbenzoic acid] | < 8.30
N#Cc1cc(NS(=O)(=O)c2cc(C(=O)O)ccc2C2CC2)c(OC2CCC2O)cc1Cl (single isomer, unassigned) [Example 128, 3-(N-(4-chloro-5-cyano-2-(trans-2-hydroxycyclobutoxy)phenyl)sulfamoyl)-4-cyclopropylbenzoic acid] | > 9.00
N#Cc1cc(NS(=O)(=O)c2cc(C(=O)O)ccc2C2CC2)c(OC2CCC2O)cc1Cl (single isomer, unassigned) [Example 129, 3-(N-(4-chloro-5-cyano-2-(trans-2-hydroxycyclobutoxy)phenyl)sulfamoyl)-4-cyclopropylbenzoic acid] | < 8.30
N#Cc1cc(NS(=O)(=O)c2cc(C(=O)O)ccc2C2CC2)c(OC2CCC2C2CC2)cc1Cl (single isomer, unassigned) [Example 130, 3-(N-(4-chloro-5-cyano-2-(2-cyclopropylcyclobutoxy)phenyl)sulfamoyl)-4-cyclopropylbenzoic acid] | 8.30 to 9.00
N#Cc1cc(NS(=O)(=O)c2cc(C(=O)O)ccc2C2CC2)c(OC2CCC2C2CC2)cc1Cl (single isomer, unassigned) [Example 131, 3-(N-(4-chloro-5-cyano-2-(2-cyclopropylcyclobutoxy)phenyl)sulfamoyl)-4-cyclopropylbenzoic acid] | > 9.00
N#Cc1cc(NS(=O)(=O)c2cc(C(=O)O)ccc2C2CC2)c(OC2CCC2C2CC2)cc1Cl (single isomer, unassigned) [Example 132, 3-(N-(4-chloro-5-cyano-2-(2-cyclopropylcyclobutoxy)phenyl)sulfamoyl)-4-cyclopropylbenzoic acid] | 8.30 to 9.00
N#Cc1cc(NS(=O)(=O)c2cc(C(=O)O)ccc2C2CC2)c(OC2CCC2C2CC2)cc1Cl (single isomer, unassigned) [Example 133, 3-(N-(4-chloro-5-cyano-2-(2-cyclopropylcyclobutoxy)phenyl)sulfamoyl)-4-cyclopropylbenzoic acid] | 8.30 to 9.00
N#Cc1cc(NS(=O)(=O)c2cc(C(=O)O)ccc2C2CC2)c(OC2CCC2O)cc1Cl (single isomer, unassigned) [Example 135, 3-(N-(4-chloro-5-cyano-2-(cis-2-hydroxycyclobutoxy)phenyl)sulfamoyl)-4-cyclopropylbenzoic acid] | < 8.30
N#Cc1cc(NS(=O)(=O)c2cc(C(=O)O)ccc2C2CC2)c(OC2CCC2O)cc1Cl (single isomer, unassigned) [Example 136, 3-(N-(4-chloro-5-cyano-2-(csi-2-hydroxycyclobutoxy)phenyl)sulfamoyl)-4-cyclopropylbenzoic acid] | > 9.00
COC1CCC1Oc1cc(Cl)c(C#N)cc1NS(=O)(=O)c1cc(C(=O)O)ccc1C1CC1 (single isomer, unassigned) [Example 138, 3-(N-(4-chloro-5-cyano-2-(trans-2-methoxycyclobutoxy)phenyl)sulfamoyl)-4-cyclopropylbenzoic acid] | > 9.00
COC1CCC1Oc1cc(Cl)c(C#N)cc1NS(=O)(=O)c1cc(C(=O)O)ccc1C1CC1 (single isomer, unassigned) [Example 139, 3-(N-(4-chloro-5-cyano-2-(trans-2-methoxycyclobutoxy)phenyl)sulfamoyl)-4-cyclopropylbenzoic acid] | < 8.30
N#Cc1cc(NS(=O)(=O)c2cc(C(=O)O)ccc2C2CC2)c(OC2CCC(F)(F)C2)cc1Cl (single isomer, unassigned) [Example 140, 3-(N-(4-chloro-5-cyano-2-((3,3-difluorocyclopentyl)oxy)phenyl)sulfa-moyl)-4-cyclopropylbenzoic acid] | > 9.00
N#Cc1cc(NS(=O)(=O)c2cc(C(=O)O)ccc2C2CC2)c(OC2CCC(F)(F)C2)cc1Cl (single isomer, unassigned) [Example 141, 3-(N-(4-chloro-5-cyano-2-((3,3-difluorocyclopentyl)oxy)phenyl)sulfa-moyl)-4-cyclopropylbenzoic acid] | > 9.00
CO[C@@H]1CCC[C@@H]1Oc1cc(Cl)c(C#N)cc1NS(=O)(=O)c1cc(C(=O)O)ccc1C1CC1 (single isomer, unassigned) [Example 142, 3-(N-(4-chloro-5-cyano-2-((cis-2-methoxycyclopentyl)oxy)phenyl)sulfa-moyl)-4-cyclopropylbenzoic acid] | > 9.00
CO[C@@H]1CCC[C@@H]1Oc1cc(Cl)c(C#N)cc1NS(=O)(=O)c1cc(C(=O)O)ccc1C1CC1 (single isomer, unassigned) [Example 143, 3-(N-(4-chloro-5-cyano-2-((cis-2-methoxycyclopentyl)oxy)phenyl)sulfa-moyl)-4-cyclopropylbenzoic acid] | 8.30 to 9.00
COC1CCC1Oc1cc(Cl)c(C#N)cc1NS(=O)(=O)c1cc(C(=O)O)ccc1C1CC1 (single isomer, unassigned) [Example 144, 3-(N-(4-chloro-5-cyano-2-(cis-2-methoxycyclobutoxy)phenyl)sulfamoyl)-4-cyclopropylbenzoic acid] | > 9.00
COC1CCC1Oc1cc(Cl)c(C#N)cc1NS(=O)(=O)c1cc(C(=O)O)ccc1C1CC1 (single isomer, unassigned) [Example 145, 3-(N-(4-chloro-5-cyano-2-(cis-2-methoxycyclobutoxy)phenyl)sulfamoyl)-4-cyclopropylbenzoic acid] | 8.30 to 9.00
N#Cc1cc(NS(=O)(=O)c2cc(C(=O)O)ccc2C2CC2)c(OC2CCCC2)cc1Cl [Example 1, 3-(N-(4-chloro-5-cyano-2-(cyclopentyloxy)phenyl)sulfamoyl)-4-cyclopropylbenzoic acid] | > 9.00
COc1ccc(C(=O)O)cc1S(=O)(=O)Nc1cc(C(F)(F)F)ccc1OC1CCCC1 [Example 2, 3-(N-(2-(cyclopentyloxy)^−5-(trifluoromethyl)phenyl)sulfamoyl)-4-methoxybenzoic acid] | < 8.30
COc1ccc(C(=O)O)cc1S(=O)(=O)Nc1cc(C(F)(F)F)ccc1OC1CCCCC1 [Example 3, 3-(N-(2-(cyclohexyloxy)^−5-(trifluoromethyl)phenyl)sulfamoyl)-4-methoxybenzoic acid] | < 8.30
O=C(O)c1ccc(C2CC2)c(S(=O)(=O)Nc2cc(C(F)(F)F)ccc2OC2CCCC2)c1 [Example 4, 3-(N-(2-(cyclopentyloxy)^−5-(trifluoromethyl)phenyl)sulfamoyl)-4-cyclopropylbenzoic acid] | 8.30 to 9.00
